Patent EP0047977A2, “Cephalosporin derivatives, process for their preparation, pharmaceutical compositions containing them and their use” (CIBA-GEIGY AG, priority 1980, dated 1982)
Values after ≈ are worked out from the molar mass of the structure shown.

Key:
[1] = tested on: Pseudomonas aeruginosa ATCC 12055; experiment: Antibiotic activity in vitro, agar dilution method in DST agar (MIC); type: cell-based; conditions: ATCC12055
[2] = tested on: Streptococcus pyogenes Aronson; experiment: as above; type: cell-based
[3] = tested on: Escherichia coli 205 K 1075; experiment: Chemotherapeutic efficacy in vivo against systemic infection in the mouse (ED50); conditions: 205K1075, sc; s.c.; systemic infection with Escherichia coli 205 K 1075 in female SPF, MF2 mice
Source text: (§1) B. Die chemotherapeutische Wirksamkeit in vivo gegen systemische Infektionen in weiblichen SPF, MF2 Mäusen wurde nach der Methode von Zak, 0., et al., 1979, Drugs Exptl. Clin. Res. 5, 45-59, ermittelt. Die gefundenen ED50-Werte in Milligramm Substanz pro Kilogramm Maus (mg/kg) gegen eine Anzahl von Mikroorganismen werden für die subcutan (s.c.) applizierten Testverbindungen in der Tabelle 2 angegeben.

[4] = tested on: Pseudomonas aeruginosa ATCC 12055; experiment: as above; conditions: ATCC12055, sc; s.c.; systemic infection with Pseudomonas aeruginosa ATCC 12055 in female SPF, MF2 mice
Source text: as §1

Escherichia coli 205 = experiment: Antibiotic activity in vitro, agar dilution method in DST agar (MIC); type: cell-based
[5] = tested on: Clostridium perfringens (anaerob); experiment: microbe, parasite or virus in culture; type: cell-based

SMILES	MIC [1] [µg/mL]	MIC [2] [µg/mL]	ED50 [3] [mg/kg]	ED50 [4] [mg/kg]	MIC (Escherichia coli 205) [µg/mL]	MIC [5] [µg/mL]
CO/N=C(\C(=O)N[C@@H]1C(=O)N2C(C(=O)[O-])=C(C[n+]3ccc(C(=O)O)cc3)CS[C@H]12)c1nsc(N)n1 [Verbindung 1, 7ß-[2-(5-Amino-1,2,4-thiadiazol-3-yl)-2-Z-methoxyiminoacetamido]-3-(4-carboxypyridiniomethyl)-3-cephem-4-carboxylat]	1 (≈ 1.92 µM)	0.1 (≈ 0.192 µM)	0.9	6	0.05 (≈ 0.0962 µM)	
CC(C)(O/N=C(\C(=O)N[C@@H]1C(=O)N2C(C(=O)[O-])=C(C[n+]3cccc(CC(=O)O)c3)CS[C@H]12)c1nsc(N)n1)C(=O)O [Verbindung 2, 7β-[2-(5-Amino-1,2,4-thiadiazol-3-yl)-2-Z-2-carboxyprop-2-yloxy-iminoacetamido]-3-(3-carboxymethylpyridiniomethyl)-3-cephem-4-carboxylat]	0.5 (≈ 0.826 µM)	1 (≈ 1.65 µM)	2	≥ 30	1 (≈ 1.65 µM)	0.1 (≈ 0.165 µM)
Cn1ccc[n+]1CC1=C(C(=O)[O-])N2C(=O)[C@@H](NC(=O)/C(=N\OC(C)(C)C(=O)O)c3nsc(N)n3)[C@H]2SC1 [Verbindung 3, 7ß-[2-(5-Amino-1,2,4-thiadiazol-3-yl)-2-Z-2-carboxyprop-2-yloxy-iminoacetamido]-3-(2-methyl-1-pyrazoliomethyl)-3-cephem-4-carboxylat]	2 (≈ 3.63 µM)	0.5 (≈ 0.908 µM)	5	10	0.5 (≈ 0.908 µM)	0.05 (≈ 0.0908 µM)
CO/N=C(\C(=O)N[C@@H]1C(=O)N2C(C(=O)[O-])=C(C[n+]3cccn3C)CS[C@H]12)c1nsc(N)n1 [Verbindung 4, 7β-[2-(5-Amino-1,2,4-thiadiazol-3-yl)-2-Z-methoxyiminoacetamido]-3-(2-methyl-1-pyrazoliomethyl)-3-cephem-4-carboxylat]	0.5 (≈ 1.04 µM)	0.1 (≈ 0.209 µM)	2.4	30	0.1 (≈ 0.209 µM)	
CO/N=C(\C(=O)N[C@@H]1C(=O)N2C(C(=O)[O-])=C(C[n+]3cccc(Br)c3)CS[C@H]12)c1nsc(N)n1 [Verbindung 5, 7β-[2-(5-Amino-1,2,4-thiadiazol-3-yl)-2-Z-methoxyiminoacetamido]-3--(3-brompyridiniomethyl)-3-cephem-4-carboxylat]	0.5 (≈ 0.902 µM)	0.05 (≈ 0.0902 µM)	0.9	10 to 30	0.1 (≈ 0.18 µM)	0.01 (≈ 0.018 µM)
CO/N=C(\C(=O)N[C@@H]1C(=O)N2C(C(=O)[O-])=C(C[n+]3ccc(CO)cc3)CS[C@H]12)c1nsc(N)n1 [Verbindung 6, 7ß-[2-(5-Amino-1,2,4-thiadiazol-3-yl)-2-Z-methoxyiminoacetamido]-3-(4-hydroxymethylpyridiniomethyl)-3-cephem-4-carboxylat]	0.1 (≈ 0.198 µM)			3 to 10	0.05 (≈ 0.0989 µM)	0.01 (≈ 0.0198 µM)
